Laboratory results published in patent US5510340A, “Antihypercholesterolemic compounds and related pharmaceutical compositions and methods of use” (SRI International, priority 1992, dated 1996).

Assays:
[1] = tested on: Cholesterol Biosynthesis in CHO Cells; test: In Vitro Assay for Inhibition of Cholesterol Biosynthesis in CHO Cells; format: cell-based, Chinese Hamster; details: Cricetulus griseus, 14C-acetate incorporation into cholesterol, 16-18 h incubation with compound
Description: Chinese Hamster ovary (CHO) cells were seeded at 1×10^5 cells per 60-mm Petri dish and incubated at 37° C. in F-12 medium supplemented with fetal calf serum (5%). After 24 h, the medium was aspirated and replaced with delipidated calf serum in F-12 medium containing the test compounds. At various concentrations, either ethanol or dimethyl sulfoxide was used to dissolve the test compounds to a final concentration of 0.1% in the cell medium. Controls contained the vehicle alone. After incubation for 16-18 h, ^14 C-acetate (20 μM final concentration) was added and incubation continued for 5.5 h. […] The cells were then scraped off the plates with a rubber policeman into saline (2 mL). An aliquot for protein was taken, and the remainder of the cell suspension was centrifuged at 800×g for 10 min. The supernatant was discarded and the pellet extracted by vortexing 15 s in chloroform:methanol (2 mL of 2:1). […] NaCl (0.4 mL) was added, vortexed, and centrifuged, and the top layer was discarded. A portion of the upper phase mixture of chloroform:methanol:water (0.4 mL of 3:48:47) was added and gently swirled to avoid mixing with the bottom layer. The resultant samples were centrifuged, and the top layer was discarded. The procedure was repeated before methanol was finally added to combine the two layers and the solvent was evaporated. Chloroform (200 μL) was added to the residue and an aliquot (150 μL) taken. To the aliquot was added cholesterol (40 μg in 20 μL), and the samples were concentrated. The lipids were dissolved in chloroform (50 μL) and spotted on silica gel G thin-layer chromatography plates. After development in hexane:ether:acetic acid (80:20:1), the ^14 C-cholesterol spot was located with iodine vapor and scraped into a scintillation vial, and the radioactivity was counted with a scintillation counter.

[2] = tested on: Cholesterol Levels in Plasma of Rats; test: Assay for Lowering Cholesterol Levels in Rats with Oral Administration of Test Compound 15; format: in vivo, Male Sprague-Dawley rats; details: rat plasma, gavage, mean ± S.E.
Description: Male Sprague-Dawley rats weighing 120 to 150 g were used. The animals were placed on a cholesterol-free diet immediately upon arrival and housed in a room with a reverse light cycle. One week after they had adapted to the light cycle, the experiment was begun by gavaging the animals three times daily with various amounts of test compound 13 suspended in 1.0 mL of saline. The control group received 1.0 mL of saline alone. On the seventh day of the experiment, sodium 1-^14 C! acetate (20 μCi/rat) was injected intraperitoneally 30 min after the oral administration (gavage) of test compounds and 2 h before the mid-dark point in the diurnal cycle; 4 h after the ^14 C-acetate injection, the animals were killed and blood samples were collected after decapitation. Plasma was obtained by centrifuging blood in an EDTA-treated centrifuge tube at 3000 rpm for 10 min. Cholesterol synthesis was measured by determining the level of ^14 C-labeled nonsaponifiable lipid present in 1.0 mL of plasma; 1.0 mL of plasma was first mixed with 1.0 mL of saline, followed by 5.0 mL of 10% KOH in absolute ethanol. Samples were saponified at 75° C. for 1 h. After cooling, 44,000 dpm, 0.5 nmol of 1,2-^3 H! cholesterol was added to each sample as an internal standard for calculating recovery through the extraction procedure. Samples were extracted once with 5 mL of petroleum ether, and the organic phase was backwashed with 5 mL of saline. The extracts were dried on a nitrogen evaporator, and the residue was reconstituted into 0.5 mL of CHCl3 -MeOH (2:1). The 0.5-mL reconstituted samples were transferred into counting vials containing 2 mL of ethanol, and both ^3 H and ^14 C were counted in 10 mL of scintillation fluid. The ^3 H-cholesterol internal standard recovery value from each sample was used to correct each sample to 100% recovery of ^14 C-cholesterol. The total cholesterol level and HDL in each plasma sample was also measured. The comparison between test groups and the control group was evaluated for both cholesterol levels and ^14 C-acetate incorporation.
(c.) Assay for Lowering Cholesterol Levels in Rats with Oral Administration of Test Compound 15:
The experiment was carried out as described in (b.). However, in this experiment, blood was drawn on days 0, 3 and 7. Total cholesterol levels and HDL were measured on these blood samples.

## C[C@H](CCCC(C)(C)O)[C@H]1CC[C@H]2[C@@H]3CC=C4C[C@@H](O)CC[C@]4(C)[C@H]3CC[C@]12C
[1]
  IC50: 0.35 µM

## CC(C)CCC[C@@H](C)[C@H]1CC(=O)C2=C3[C@H](O)C[C@H]4C[C@@H](O)CC[C@]4(C)[C@H]3CC[C@@]21C
[1]
  IC50: 1.6 µM

## CC(C)CCC[C@@H](C)[C@H]1C[C@H]2C3=C4[C@@H](C[C@H]5C[C@@H](O)CC[C@]5(C)[C@H]4CC[C@@]31C)n1c(=O)c3ccccc3c(=O)n12
[1]
  IC50: 2.1 µM

## CCOC(=O)N1[C@@H]2C[C@H]3C[C@@H](O)CC[C@]3(C)[C@H]3CC[C@@]4(C)C(=C23)[C@H](C[C@@H]4[C@H](C)CCCC(C)C)N1C(=O)OCC
[1]
  IC50: 0.8 µM

## CCOC(=O)N1[C@@H]2C[C@H]3C[C@@H](OC(=O)c4ccccc4)CC[C@]3(C)[C@H]3CC[C@@]4(C)C(=C23)[C@H](C[C@@H]4[C@H](C)CCCC(C)C)N1C(=O)OCC
[1]
  IC50: 1.3 µM

## CC(C)CCC[C@@H](C)[C@H]1C[C@H]2C3=C4[C@@H](C[C@H]5C[C@@H](O)CC[C@]5(C)[C@H]4CC[C@@]31C)N(C)N2C
[1]
  IC50: 1.6 µM

## C[C@H](CCCC(C)(C)O)[C@H]1Cc2nnc3c4c2[C@]1(C)CC[C@@H]4[C@@]1(C)CC[C@H](O)C[C@@H]1C3
[1]
  IC50: 3.4 µM

## C[C@H](CCCC(C)(C)F)[C@H]1Cc2nnc3c4c2[C@]1(C)CC[C@@H]4[C@@]1(C)CC[C@H](O)C[C@@H]1C3
[1]
  IC50: 0.16 µM

## CC(C)[C@@H](C)/C=C/[C@@H](C)[C@H]1Cc2nnc3c4c2[C@]1(C)CC[C@@H]4[C@@]1(C)CC[C@H](O)C[C@@H]1C3
[1]
  IC50: 0.11 µM

## CC(C)CCC[C@@H](C)[C@H]1C[C@H](O)C2=C3C(=O)C[C@H]4C[C@@H](O)CC[C@]4(C)[C@H]3CC[C@@]21C
[1]
  IC50: 1.1 µM

## CC(C)CCC[C@@H](C)[C@H]1C[C@H](O)C2=C3C(=O)C[C@H]4C[C@@H](OC(=O)c5ccccc5)CC[C@]4(C)[C@H]3CC[C@@]21C
[1]
  IC50: 3.5 µM

## CO[C@@H]1C[C@H]([C@H](C)CCCC(C)C)[C@@]2(C)CC[C@H]3C(=C12)CC[C@H]1C[C@@H](O)CC[C@@]13C
[1]
  IC50: 0.9 µM

## CC(C)CCC[C@@H](C)[C@H]1CC(=O)C2=C3[C@H](F)C[C@H]4C[C@@H](OC(=O)c5ccccc5)CC[C@]4(C)[C@H]3CC[C@@]21C
[1]
  IC50: 0.2 µM

## CC(C)CCC[C@@H](C)[C@H]1Cc2n[n+]([O-])c3c4c2[C@]1(C)CC[C@@H]4[C@@]1(C)CC[C@H](O)C[C@@H]1C3
[1]
  IC50: < 0.25 µM

## CC(C)CCC[C@@H](C)[C@H]1Cc2cnc3c4c2[C@]1(C)CC[C@@H]4[C@@]1(C)CC[C@H](O)C[C@@H]1C3 [Compound 15, pyridino 2',3',4',5':7,8,14,15!cholestan-3β-ol]
[2]; Day 0, 0.16 mg/rat/day, control 42.2 ± 4.40
  Cholesterol Levels, HDL: 39.6 ± 2.06 Mg/100 mL
[2]; Day 0, 0.16 mg/rat/day, control 95.8 ± 9.79
  Cholesterol Levels, Total: 94.8 ± 5.5 Mg/100 mL
[2]; Day 0, 0.33 mg/rat/day, control 42.2 ± 4.40
  Cholesterol Levels, HDL: 35.8 ± 1.91 Mg/100 mL
[2]; Day 0, 0.33 mg/rat/day, control 95.8 ± 9.79
  Cholesterol Levels, Total: 99.0 ± 3.7 Mg/100 mL
[2]; Day 0, 1.0 mg/rat/day, control 42.2 ± 4.40
  Cholesterol Levels, HDL: 37.8 ± 3.01 Mg/100 mL
[2]; Day 0, 1.0 mg/rat/day, control 95.8 ± 9.79
  Cholesterol Levels, Total: 88.8 ± 7.78 Mg/100 mL
[2]; Day 0, 3.0 mg/rat/day, control 42.2 ± 4.40
  Cholesterol Levels, HDL: 35.2 ± 3.14 Mg/100 mL
[2]; Day 0, 3.0 mg/rat/day, control 95.8 ± 9.79
  Cholesterol Levels, Total: 85.6 ± 6.57 Mg/100 mL
[2]; Day 3, 0.16 mg/rat/day, control 41.6 ± 2.62
  Cholesterol Levels, HDL: 36.4 ± 1.36 Mg/100 mL
[2]; Day 3, 0.16 mg/rat/day, control 85.2 ± 2.95
  Cholesterol Levels, Total: 83.6 ± 3.56 Mg/100 mL
[2]; Day 3, 0.33 mg/rat/day, control 41.6 ± 2.62
  Cholesterol Levels, HDL: 35.8 ± 2.40 Mg/100 mL
[2]; Day 3, 0.33 mg/rat/day, control 85.2 ± 2.95
  Cholesterol Levels, Total: 75.6 ± 1.94 Mg/100 mL
[2]; Day 3, 1.0 mg/rat/day, control 41.6 ± 2.62
  Cholesterol Levels, HDL: 34.4 ± 1.69 Mg/100 mL
[2]; Day 3, 1.0 mg/rat/day, control 85.2 ± 2.95
  Cholesterol Levels, Total: 78.8 ± 2.86 Mg/100 mL
[2]; Day 3, 3.0 mg/rat/day, control 41.6 ± 2.62
  Cholesterol Levels, HDL: 29.6 ± 0.98 Mg/100 mL
[2]; Day 3, 3.0 mg/rat/day, control 85.2 ± 2.95
  Cholesterol Levels, Total: 72.2 ± 2.95 Mg/100 mL
[2]; Day 7, 0.16 mg/rat/day, control 49.6 ± 4.01
  Cholesterol Levels, HDL: 39.8 ± 1.02 Mg/100 mL
[2]; Day 7, 0.16 mg/rat/day, control 84.8 ± 4.40
  Cholesterol Levels, Total: 69.4 ± 3.66 Mg/100 mL
[2]; Day 7, 0.33 mg/rat/day, control 49.6 ± 4.01
  Cholesterol Levels, HDL: 36.0 ± 2.55 Mg/100 mL
[2]; Day 7, 0.33 mg/rat/day, control 84.8 ± 4.40
  Cholesterol Levels, Total: 57.6 ± 2.89 Mg/100 mL
[2]; Day 7, 1.0 mg/rat/day, control 49.6 ± 4.01
  Cholesterol Levels, HDL: 25.0 ± 1.87 Mg/100 mL
[2]; Day 7, 1.0 mg/rat/day, control 84.8 ± 4.40
  Cholesterol Levels, Total: 58.0 ± 4.06 Mg/100 mL
[2]; Day 7, 3.0 mg/rat/day, control 49.6 ± 4.01
  Cholesterol Levels, HDL: 15.4 ± 1.40 Mg/100 mL
[2]; Day 7, 3.0 mg/rat/day, control 84.8 ± 4.40
  Cholesterol Levels, Total: 46.4 ± 2.23 Mg/100 mL

## CC(C)CCC[C@@H](C)[C@H]1CC(=O)C2=C3CC[C@H]4C[C@@H](O)CC[C@]4(C)[C@H]3CC[C@@]21C [drawing 26]
[1]
  IC50: 1.4 µM

## CC(C)CCC[C@@H](C)[C@H]1Cc2nnc3c4c2[C@]1(C)CC[C@@H]4[C@@]1(C)CC[C@H](O)C[C@@H]1C3 [drawing 35]
[1]
  IC50: 0.09 µM
